Results as given in patent publication US11395833B2, “Process for the preparation and purification of the sodium salt of hyaluronic acid” (priority 2016, dated 2022).

Experiment: LAL test for bacterial endotoxins (Ph. Eur. 5.0, 2.6.14)
Conditions: analysis of the product according to Ph. Eur. 5.0
Procedure: LAL Test: the basis of the LAL test is the capacity of the amebocytes extracted from blood of Limulus polyphemus to gel in the presence of bacterial endotoxins from Gram-negatives, primarily responsible for the pyrogen effect. This test is carried out according to Ph. Eur. 5.0, 2.6.14.

sodium salt of HA [Example 1]
Bacterial endotoxins (LAL test): 0.012 EU/mg

sodium salt of HA [Example 2]
Bacterial endotoxins (LAL test): 0.012 EU/mg

sodium salt of HA [Example 3]
Bacterial endotoxins (LAL test): 0.0075 EU/mg
